Measured values published in patent publication US5218125A, “Antihypertensive compound and method of use thereas” (Merck & Co., Inc., priority 1992, dated 1993).

Molecular target: T1, Angiotensin II (A II) receptor (Oryctolagus cuniculus, UniProt P34976)
T1 construct: 125I-Sar1,Ile8-angiotensin II displacement
T1 sequence (P34976 1-359): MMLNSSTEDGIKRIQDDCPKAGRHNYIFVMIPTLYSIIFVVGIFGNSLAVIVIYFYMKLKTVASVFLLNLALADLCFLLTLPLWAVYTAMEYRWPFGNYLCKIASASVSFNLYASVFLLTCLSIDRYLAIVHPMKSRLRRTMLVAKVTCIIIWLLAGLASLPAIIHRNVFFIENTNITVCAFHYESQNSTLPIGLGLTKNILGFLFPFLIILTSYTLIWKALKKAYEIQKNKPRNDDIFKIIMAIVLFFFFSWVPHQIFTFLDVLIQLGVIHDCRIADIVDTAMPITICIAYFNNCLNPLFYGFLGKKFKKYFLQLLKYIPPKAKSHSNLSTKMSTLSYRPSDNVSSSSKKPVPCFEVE
Assay: Receptor binding assay using rabbit aortae membrane preparation (125I-Sar1 Ile8-angiotensin II displacement, "IC50" assay)
Description: This assay is also referred to herein as the "IC50 " assay.
RECEPTOR BINDING ASSAY USING RABBIT AORTAE MEMBRANE PREPARATION
Three frozen rabbit aortae (obtained from Pel-Freeze Biologicals) were suspended in 5 mM Tris-0.25M Sucrose, pH 7.4 buffer (50 mL) homogenized, and then centrifuged. The mixture was filtered through a cheesecloth and the supernatant was centrifuged for 30 minutes at 20,000 rpm at 4° C. The pellet thus obtained was resuspended in 30 ml of 50 mM Tris-5 mM MgCl2 buffer containing 0.2% Bovine Serum Albumin and 0.2 mg/mL Bacitratin and the suspension was used for 100 assay tubes. Samples tested for screening were done in duplicate. To the membrane preparation (0.25 mL) there was added ^125 I-Sar^1 Ile^8 -angiotensin II [obtained from New England Nuclear] (10 uL; 20,000 cpm) with or without the test sample and the mixture was incubated at 37° C. for 90 minutes. The mixture was then diluted with ice-cold 50 mM Tris-0.9% NaCl, pH 7.4 (4 mL) and filtered through a glass fiber filter (GF/B Whatman 2.4" diameter). The filter was soaked in scintillation cocktail (10 mL) and counted for radioactivity using Packard 2660 Tricarb liquid scintillation counter. […]

A II antagonist activity by the IC50 assay: exhibits A II antagonist activity
SMILES: CCCC(O)c1nc(Cl)c(CO)n1Cc1ccc(-c2ccccc2-c2nn[nH]n2)cc1 (stereo not shown) [Compound (I)]
